# Experiment: Bioavailability of salmon calcitonin after nasal application (plasma concentration by radio-immuno-assay)
# Parameters: species or system rhesus monkeys
# Settings: rhesus monkey, in vivo
# Description: The drug compound concentration was measured in the plasma by radio-immuno-assay. The salmon calcitonin determinations were carried out up to 6 hours after application.
substance,measurement,value
salmon calcitonin,bioavailability as % of the value measured with the best known resorption promoter,67%
same,bioavailability as % of the values found after application without resorption promoter,> 400%
